In patent publication US8163766B2, “Beta-secretase modulators and methods of use” (Amgen Inc., priority 2005, dated 2012) one finds IC50 data, which are given here for nine compounds.

Some results are limits rather than exact numbers.

The subject of this assay is Aβ 40 in conditioned media of cells stably expressing Amyloid Precursor Protein (APP). Nature of the assay: BACE Cell-Based Assay (Aβ40 in conditioned medium, sandwich ELISA). Particulars: 24 hours of incubation with the test compounds, Aβ 40 by sandwich ELISA, read-out: IC50 values in the cell-based assay (inhibition of Aβ 40). The gist of the method: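 IC50 derived from Aβ40 reduction in supernatants, quantified by europium time-resolved fluorescence ELISA with pAb40/biotin-6E10 antibodies incubated at 4°C. Cells stably expressing APP received compound for 24 h, ten concentrations from 100 μM or 10 μM top, final DMSO 0.1%.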
A word on the IC50: it is the point on the concentration scale where inhibition reaches its midpoint. For `Cc1cnc2c(c1)[C@@H](NC[C@@H](O)[C@H](Cc1ccccc1)NC(=O)C1CCOCC1)CC1(CCC1)C2` [Example 502, N-((1S,2R)-2-hydroxy-3-(((5′S)-3′-methyl-5′,8′-dihydro-6′H-spiro[cyclobutane-1,7′-quinolin]-5′-yl)amino)-1-(phenylmethyl)propyl)tetrahydro-2H-pyran-4-carboxamide], the IC50 is not above 5 µM. Take `Cc1cnc2c(c1)[C@@H](NC[C@@H](O)[C@H](Cc1cc(F)cc(F)c1)NC(=O)C1CCOCC1)CC(C)(C)C2` [Example 503, N-((1S,2R)-1-((3,5-difluorophenyl)methyl)-2-hydroxy-3-(((5S)-3,7,7-trimethyl-5,6,7,8-tetrahydro-5-quinolinyl)amino)propyl)tetrahydro-2H-pyran-4-carboxamide]: the IC50 was not above 5 µM.

For the compound `Cc1cnc2c(c1)[C@@H](NC[C@@H](O)[C@H](Cc1ccccc1)NC(=O)C1CCOCC1)CC(C)(C)C2` [Example 504, N-((1S,2R)-2-hydroxy-1-(phenylmethyl)-3-(((5S)-3,7,7-trimethyl-5,6,7,8-tetrahydro-5-quinolinyl)amino)propyl)tetrahydro-2H-pyran-4-carboxamide], the IC50 is not above 5 µM. As for `COCCNc1ccc2c(c1)[C@@H](NC[C@@H](O)[C@H](Cc1ccccc1)NC(=O)c1cc(-c3ccccn3)c(=O)n(C3CCCC3)c1)CC(C)(C)C2=O` [Example 505, 1′-cyclopentyl-N-((1S,2R)-3-(((1S)-3,3-dimethyl-7-((2-(methyloxy)ethyl)amino)-4-oxo-1,2,3,4-tetrahydro-1-naphthalenyl)amino)-2-hydroxy-1-(phenylmethyl)propyl)-2′-oxo-1′,2′-dihydro-2,3′-bipyridine-5′-carboxamide], the IC50 is not above 5 µM. Regarding `COCCNc1ccc2c(c1)[C@@H](NC[C@@H](O)[C@@H](Cc1ccccc1)NC(=O)c1cc(-c3ccccn3)c(=O)n(C3CCCC3)c1)CC(C)(C)C2=O` [Example 507, 1′-cyclopentyl-N-((1R,2R)-3-(((1S)-3,3-dimethyl-7-((2-(methyloxy)ethyl)amino)-4-oxo-1,2,3,4-tetrahydro-1-naphthalenyl)amino)-2-hydroxy-1-(phenylmethyl)propyl)-2′-oxo-1′,2′-dihydro-2,3′-bipyridine-5′-carboxamide], the IC50 was not above 5 µM. `CCc1cc2c(s1)CC1(CCC1)C[C@@H]2NC[C@@H](O)[C@H](Cc1ccccc1)NC(=O)c1cc(-c2ccccn2)c(=O)n(C(C)C)c1` [Example 508, N-((1S,2R)-3-(((4S)-2-ethyl-4,7-dihydro-5H-spiro[1-benzothiophene-6,1′-cyclobutan]-4-yl)amino)-2-hydroxy-1-(phenylmethyl)propyl)-1′-(1-methylethyl)-2′-oxo-1′,2′-dihydro-2,3′-bipyridine-5′-carboxamide]: the IC50 is not above 5 µM. With `Cc1cnc2c(c1)[C@@H](NC[C@@H](O)[C@H](Cc1cc(F)cc(F)c1)NC(=O)[C@@H]1CCOC1)CC1(CCC1)C2` [Example 509, (3R)-N-((1S,2R)-1-((3,5-difluorophenyl)methyl)-2-hydroxy-3-(((5′S)-3′-methyl-5′,8′-dihydro-6′H-spiro[cyclobutane-1,7′-quinolin]-5′-yl)amino)propyl)tetrahydro-3-furancarboxamide], the IC50 was not above 5 µM.

Take `Cc1cnc2c(c1)[C@@H](NC[C@@H](O)[C@H](Cc1cc(F)cc(F)c1)NC(=O)C1CCOCC1)CC1(CCC1)C2` [Example 510, N-((1S,2R)-1-((3,5-difluorophenyl)methyl)-2-hydroxy-3-(((5′S)-3′-methyl-5′,8′-dihydro-6′H-spiro[cyclobutane-1,7′-quinolin]-5′-yl)amino)propyl)tetrahydro-2H-pyran-4-carboxamide]: the IC50 was not above 5 µM. As for `CCc1ccc2c(c1)[C@@H](NC[C@@H](O)[C@H](Cc1ccccc1)NC(=O)[C@H]1CN(C(=O)c3cccc(C)c3)CCO1)CC1(CCC1)O2` [Example 511, (2R)-N-((1S,2R)-3-(((4S)-6-ethyl-3,4-dihydrospiro[chromene-2,1′-cyclobutan]-4-yl)amino)-2-hydroxy-1-(phenylmethyl)propyl)-4-((3-methylphenyl)carbonyl)-2-morpholinecarboxamide], the IC50 was not above 5 µM.
